pIC50: −log10 of the molar value.
Experiments:
LMP1 = assay: EBV target gene downregulation (qPCR) in HG-3 cells: LMP1; format: cell-based; settings: Homo sapiens, mRNA by qPCR, Table 2
Experimental: (§1) One million human EBV positive lymphoma cell lines HG3 and LCL070903 (Rosén et al., 2012) were cultured in RPMI1640 media supplemented with 10% FCS. For RNA expression analysis cells were treated with compounds at 10 μM concentration and for proliferation assay cells were treated at a concentration range of 0.01-100 μM. Following treatment cells were harvested and washed with 1× PBS. Total RNA was extracted as described below.
(§2) Total RNA was extracted from cells using TRIzol® extraction kit (Invitrogen). Briefly, 1×10^6 cells were washed with ice-cold 1× PBS and lysed in 1 ml of TRIzol® solution for 5 minutes at room temperature to dissociate nucleoprotein complexes. Lysed cells were then treated with 200 μl of chloroform and shaked vigorously for 15-30 seconds and incubated at room temperature for 2-3 minutes. The samples were centrifuged at 14000 rpm using Eppendorf table top centrifuge for 10 minutes at 4° C. Following centrifugation, upper aqueous phase was transferred to new eppendorf tubes. To precipitate total RNA 500 μl of […] was added to the separated aqueous phase and incubated at room temperature for 10 minutes. A RNA pellet was obtained by centrifuging the samples at 4° C. for 10 minutes. RNA pellet obtained was washed with 1 ml ice cold 75% ethanol and spun down at 14000 rpm at 4° C. RNA pellet was dried off of excess of ethanol and resuspended in 40 IA DPEC water.
(§3) Total RNA extracted from the cell was used to synthesize cDNA by reverse transcription reaction. Reverse transcription was performed according to one of the two following protocols.
(§4) In first protocol, SuperScript™ RT (Invitrogen) was used for reverse transcription reaction. RNA concentration was measured using NanoDrop®ND-1000 spectrophotometer (Witec AG) and 500 ng of total RNA was mixed with a 10 mM mix of dNTPs and 100 ng of random primers. The reaction mix was incubated at 65° C. for 5 minutes and quickly incubated on ice for 1 minute. Following incubation on ice, 5× first strand buffer and 0.1M DTT were added and mix was incubated for 2 minutes at 25° C. To start the reverse transcription reaction, 200U of SuperScrip™ II RT was added to the reaction mix and incubated at 42° C. for 50 minutes. The reaction was stopped by incubating the reaction mix at 75° C. for 15 minutes.
(§5) In second protocol, reverse transcription was performed using PrimeScript RT Master Mix (Takara). RNA concentration was measured using NanoDrop®ND-1000 spectrophotometer (Witec AG) and 1 μg of total RNA was mixed with 4 μL 5X PrimeScript RT Master Mix in a total reaction volume of 20 μL. […]
(§6) To determine the ability of compounds to downregulate EBV driven gene expression, HG-3 cells were treated with selected compounds and percentage inhibition of EBV target genes was determined by quantitative PCR. […]

[1] = tested on: EBV positive human lymphoma HG-3 cells; assay: Alamar blue proliferation assay in HG-3 cells; format: cell-based; settings: 72 hours; for anti-proliferative effect on HG-3 cells (in words): Alamar blue, FIG. 1 and Table 1; for pIC50: Homo sapiens, concentration range 0.01-10 μM, Alamar blue assay, read-out: Anti-proliferative IC50 values
Experimental: (§7) One million human EBV positive lymphoma cell lines HG3 and LCL070903 (Rosén et al., 2012) were cultured in RPMI1640 media supplemented with 10% FCS. […] Following treatment cells were harvested and washed with 1× PBS. Total RNA was extracted as described below.
(§8) Alamarblue® and PrestoBlue proliferation assays were performed to determine the growth kinetics of EBV inhibitor treated cells. Alamar blue® and PrestoBlue consists of a cell permeable substrate resazurin. In metabolically active and proliferating cells, resazurin is converted to resorufin due to an intrinsic reducing power of live cells and produces a red fluorescence. Therefore production of resorufin serves as an indicator of the viability of the cell population.
(§9) Proliferation assays were performed by seeding 5000 cells/well in a 96 well plate. […] Each concentration was tested in 4 replicates. To determine the growth kinetics, 10 μl of Alamar blue® or PrestoBlue (Invitrogen) was added to each well and incubated for 4 hours. Readout was taken using Tecan F500 (Tecan) multiplate reader or Varioskan LUX (ThermoFisher) multiplate reader.
In order to determine anti-cancer activity of compounds in oncoviral driven cells, an EBV infected human Chronic Lymphocytic Leukemia cell line HG-3 was used (Rosen et al., 2012). In brief, HG-3 cells were plated in a 96 well plate and treated with an increasing concentration of compounds.

RUNX3 = assay: EBV target gene downregulation (qPCR) in HG-3 cells: RUNX3; format: cell-based; settings: Homo sapiens, mRNA by qPCR, Table 2
Experimental: as §1, §2, §3, §4, §5, §6

NOTCH target gene HES1 = NOTCH target gene HES1 downregulation in RPMI 8402 cells; format: cell-based, human; set-up: Percentage inhibition of NOTCH target gene HES1: concentration or dose not given beside the values; settings: RPMI 8402 cells (NOTCH1 positive, EBV negative)
Experimental: as §2, §3
(§10) QRT-PCR was carried out using 7900 HT Fast Real-Time PCR system (Applied Biosystems) or QuantStudio 3 system (ThermoFisher). Briefly, 12.5 ng of template cDNA was used with a primer concentration of 0.5 μM each and lx SYBR Green dye in a final volume of 10 μL in a 96 well or 384 well plate format.
(§11) To determine the ability of compounds to downregulate EBV driven gene expression, HG-3 cells were treated with selected compounds and percentage inhibition of EBV target genes was determined by quantitative PCR. […] To further determine the anti-oncoviral specificity of compounds, these compounds were tested for their ability to downregulate a NOTCH target gene HES1 in a NOTCH1 positive (EBV negative) human leukemic cell line RPMI8402.

EBNA2 [2] = assay: EBV target gene downregulation (qPCR) in HG-3 cells: EBNA2; format: cell-based; settings: Homo sapiens, mRNA by qPCR
Experimental: as §1, §2, §3, §4
(§12) In second protocol, reverse transcription was performed using PrimeScript RT Master Mix (Takara). RNA concentration was measured using NanoDrop®ND-1000 spectrophotometer (Witec AG) and 1 μg of total RNA was mixed with 4 μL 5X PrimeScript RT Master Mix in a total reaction volume of 20 μL. The reaction mix was incubated at 37° C. for 15 minutes followed by heat inactivation at 85° C. for 5 seconds.
as §10, §11
(§13) Upon infection of human cells, EBV is known to induce cancerous transformation of cells via upregulation of host as well as viral genes (e.g LMP1, EBNA2, BATF1, BMI1 and CD21). To determine the ability of compounds to downregulate EBV driven gene expression, HG-3 and LCL070903 cells were treated with selected compounds and percentage inhibition of EBV target genes was determined by quantitative PCR. As shown in Table 5 and Table 6, compounds down regulate EBV target genes such as BMI1 in HG-3 and LCL070903 cells, respectively (FIGS. 3 and 4).

BMI1 (EBV target gene) [3] = assay: EBV target gene downregulation (qPCR) in LCL070903 cells: BMI1; format: cell-based, human; settings: 48 hours; for potency in downregulating EBV pathway (BMI1) compared with 6-(4-tert-butylphenoxy)pyridin-3-amine (in words): 10 μM, qRT-PCR, FIG. 3; for inhibition at 10 µM: Homo sapiens, mRNA by qPCR, Table 6
Experimental: EBV positive human B LCL070903 cells were treated with 10 μM of the mentioned compounds for 48 hours. Following treatment, total RNA was extracted and mRNA expression analysed by qRT-PCR.
as §1, §2, §3, §4, §12, §10, §13

EBNA2 [4] = assay: EBV target gene downregulation (qPCR) in LCL070903 cells: EBNA2; format: cell-based; settings: Homo sapiens, mRNA by qPCR, Table 6
Experimental: as §1, §2, §3, §4, §12, §10, §13

[5] = tested on: EBV positive human B HG-3 cells; assay: PrestoBlue proliferation assay in HG-3 cells; format: cell-based; settings: 72 hours; for anti-proliferative effect on HG-3 cells (in words): PrestoBlue, FIG. 2 and Table 4; for IC50: Homo sapiens, concentration range 0.03-100 μM, PrestoBlue assay, read-out: Anti-proliferative IC50 values (μM) in HG-3 cells
Experimental: as §7, §8, §9
In brief, HG-3 cells were plated in a 96 well plate and treated with an increasing concentration of compounds.

BMI1 (EBV target gene) [6] = assay: EBV target gene downregulation (qPCR) in HG-3 cells: BMI1; format: cell-based, human; settings: 48 hours; for potency in downregulating EBV pathway (BMI1) compared with 6-(4-tert-butylphenoxy)pyridin-3-amine (in words): 10 μM, qRT-PCR, FIG. 4; for inhibition at 10 µM: Homo sapiens, mRNA by qPCR, Table 5
Experimental: EBV positive human B HG-3 cells were treated with 10 μM of the mentioned compounds for 48 hours. Following treatment, total RNA was extracted and mRNA expression analysed by qRT-PCR.
as §1, §2, §3, §4, §12, §10, §13

CD21 [7] = assay: EBV target gene downregulation (qPCR) in LCL070903 cells: CD21; format: cell-based; settings: Homo sapiens, mRNA by qPCR, Table 6
Experimental: as §1
as §2, with “A RNA pellet was obtained by centrifuging the samples at 4° C. for 10 minutes. RNA pellet obtained was washed with 1 ml ice cold 75% ethanol and spun down at 14000 rpm at 4° C. RNA pellet was dried off of excess of ethanol and resuspended in 40 IA DPEC water.” left out
(§14) In first protocol, SuperScript™ RT (Invitrogen) was used for reverse transcription reaction. RNA concentration was measured using NanoDrop®ND-1000 spectrophotometer (Witec AG) and 500 ng of total RNA was mixed with a 10 mM mix of dNTPs and 100 ng of random primers. […]
as §5
as §13, with “As shown in Table 5 and Table 6, compounds down regulate EBV target genes such as BMI1 in HG-3 and LCL070903 cells, respectively (FIGS. 3 and 4).” left out

CD21 [8] = assay: EBV target gene downregulation (qPCR) in HG-3 cells: CD21; format: cell-based; settings: Homo sapiens, mRNA by qPCR, Table 5
Experimental: as §1
Total RNA was extracted from cells using TRIzol® extraction kit (Invitrogen). Briefly, 1×10^6 cells were washed with ice-cold 1× PBS and lysed in 1 ml of TRIzol® solution for 5 minutes at room temperature to dissociate nucleoprotein complexes. Lysed cells were then treated with 200 μl of chloroform and shaked vigorously for 15-30 seconds and incubated at room temperature for 2-3 minutes. […]
as §14, §5

| SMILES | inhibition at 10 µM (LMP1) [%] | anti-proliferative effect on HG-3 cells (in words) [1] | pIC50 [1] | inhibition at 10 µM (RUNX3) [%] | Percentage inhibition of NOTCH target gene HES1 (NOTCH target gene HES1) [%] | downregulation of NOTCH target gene HES1 (in words) (NOTCH target gene HES1) | inhibition at 10 µM (EBNA2 [2]; Table 2) [%] | potency in downregulating EBV pathway (BMI1) compared with 6-(4-tert-butylphenoxy)pyridin-3-amine (in words) (BMI1 (EBV target gene) [3]) | inhibition at 10 µM (BMI1 (EBV target gene) [3]) [%] | inhibition at 10 µM (EBNA2 [4]) [%] | anti-proliferative effect on HG-3 cells (in words) [5] | IC50 [5] [µM] | potency in downregulating EBV pathway (BMI1) compared with 6-(4-tert-butylphenoxy)pyridin-3-amine (in words) (BMI1 (EBV target gene) [6]) | inhibition at 10 µM (BMI1 (EBV target gene) [6]) [%] | inhibition at 10 µM (EBNA2 [2]; Table 5) [%] | inhibition at 10 µM (CD21 [7]) [%] | inhibition at 10 µM (CD21 [8]) [%] |
| --- | --- | --- | --- | --- | --- | --- | --- | --- | --- | --- | --- | --- | --- | --- | --- | --- | --- |
| CC(C)(C)c1ccc(Oc2ccc(NCc3ccncc3)cn2)cc1 [Example 1, 6-(4-(tert-Butyl)phenoxy)-N-(pyridin-4-ylmethyl)pyridin-3-amine] | 30 | demonstrate anti-proliferative effect | 5.40 | 27 | 0 | do not modulate expression of this gene | – | – | – | – | – | – | – | – | – | – | – |
| CC(C)(C)c1ccc(Oc2ccc(NCc3ccccn3)cn2)cc1 [Example 3, 6-(4-(tert-Butyl)phenoxy)-N-(pyridin-2-ylmethyl)pyridin-3-amine] | 37 | demonstrate anti-proliferative effect | 5.27 | 55 | 0 | do not modulate expression of this gene | 16 | – | – | – | – | – | – | – | – | – | – |
| CC(C)(C)c1ccc(Oc2ccc(NCc3cnc(N)nc3)cn2)cc1 [Example 5, 5-(((6-(4-(tert-Butyl)phenoxy)pyridin-3-yl)amino)methyl)pyrimidin-2-amine] | 22 | demonstrate anti-proliferative effect | 5.32 | 57 | 0 | do not modulate expression of this gene | 46 | – | – | – | – | – | – | – | – | – | – |
| CC(C)(C)c1ccc(Oc2ccc(NCc3c[nH]cn3)cn2)cc1 [Example 10, N-((1H-Imidazol-4-yl)methyl)-6-(4-(tert-butyl)phenoxy)pyridin-3-amine] | 15 | demonstrate anti-proliferative effect | 5.18 | 37 | 0 | do not modulate expression of this gene | – | – | – | – | – | – | – | – | – | – | – |
| Fc1cc(NCc2cccnc2)ccc1Oc1ccc(C2CCCCC2)cc1 [Example 19, 4-(4-Cyclohexylphenoxy)-3-fluoro-N-(pyridin-3-ylmethyl)aniline] | – | – | – | – | – | – | – | enhanced potency | 56 | 19 | demonstrate anti-proliferative effect | 3.5 | enhanced potency | 19 | 36 | – | – |
| Cc1nc(Oc2ccc(-c3ccccc3)cc2)ccc1NCc1cccnc1 [Example 23, 6-([1,1′-Biphenyl]-4-yloxy)-2-methyl-N-(pyridin-3-ylmethyl)pyridin-3-amine] | – | – | – | – | – | – | – | enhanced potency | 39 | 1 | demonstrate anti-proliferative effect | 1.9 | enhanced potency | 35 | 1 | – | – |
| c1cncc(CNc2ccc(Oc3ccc(-c4cncs4)cc3)nc2)c1 [Example 27, N-(pyridin-3-ylmethyl)-6-(4-(thiazol-5-yl)phenoxy)pyridin-3-amine] | – | – | – | – | – | – | – | enhanced potency | 66 | – | demonstrate anti-proliferative effect | 1.9 | enhanced potency | – | – | 22 | – |
| Cc1ccccc1-c1ccc(Oc2ccc(NCc3cccnc3)cn2)cc1C [Example 29, 6-((2,2′-dimethyl-[1,1′-biphenyl]-4-yl)oxy)-N-(pyridin-3-ylmethyl)pyridin-3-amine] | – | – | – | – | – | – | – | enhanced potency | 72 | 30 | demonstrate anti-proliferative effect | 2 | enhanced potency | 28 | 6 | – | – |
| OC(c1ccc(NCc2cccnc2)cc1)c1ccc(-c2ccc(F)cc2)cc1 (stereo not shown) [Example 30, (4′-Fluoro-[1,1′-biphenyl]-4-yl)(4-((pyridin-3-ylmethyl)amino)phenyl)methanol] | – | – | – | – | – | – | – | enhanced potency | 54 | – | – | – | enhanced potency | 31 | – | – | 10 |
